Columns and labels:
Experiment in all cases: relative viability (nuclei count vs DMSO), 5 days (fraction); higher = more cells survive
NCI-H1944 = tested on: NCI-H1944
How it was run: (§1)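 For relative viability, nuclei counts in treated wells were divided by those in vehicle wells. Lung cancer cell lines had been pin-tool dosed in 1536-well plates the day after seeding and cultured for 5 days, then fixed and stained in one step (final 0.05% Triton X-100, 1% formaldehyde, 1 ug/ml Hoechst) and imaged at 4×. Doses were one drug alone or a fixed anchor-drug dose plus five library-drug doses (not always all listed) in √10 steps, and values are duplicate-plate medians.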

NCI-H2347 = tested on: NCI-H2347
How it was run: as §1

NCI-H23 = tested on: NCI-H23
How it was run: as §1

NCI-H460 = tested on: NCI-H460
How it was run: as §1

NCI-H650 = tested on: NCI-H650
How it was run: as §1

NCI-H727 = tested on: NCI-H727
How it was run: as §1

NCI-H838 = tested on: NCI-H838
How it was run: as §1

PC-14 = tested on: PC-14
How it was run: as §1

PC-3 [JPC-3] = tested on: PC-3 [JPC-3]
How it was run: as §1

RERF-LC-KJ = tested on: RERF-LC-KJ
How it was run: as §1

SW 1573 = tested on: SW 1573
How it was run: as §1

SW 900 = tested on: SW 900
How it was run: as §1

**Q.** Which results are given for `COc1cc(N2CCC(C(N)=O)CC2)ccc1Nc1nc(N)c(Cl)c(Nc2ccccc2S(=O)(=O)C(C)C)n1` [HG-5-88-01] + N=C(N)NC(=N)NCCc1ccccc1 [Phenformin] (partner 250 µM)?
**A.** relative viability (NCI-H1944; first compound 0.1265 µM): 0.241; relative viability (NCI-H1944; first compound 0.4 µM): 0.262; relative viability (NCI-H1944; first compound 1.265 µM): 0.209; relative viability (NCI-H1944; first compound 4 µM): 0.22; relative viability (NCI-H2347; first compound 0.04 µM): 0.295; relative viability (NCI-H2347; first compound 0.1265 µM): 0.626; relative viability (NCI-H2347; first compound 0.4 µM): 0.448; relative viability (NCI-H2347; first compound 1.265 µM): 0.41; relative viability (NCI-H2347; first compound 4 µM): 0.487; relative viability (NCI-H23; first compound 0.04 µM): 0.767; relative viability (NCI-H23; first compound 0.1265 µM): 0.833; relative viability (NCI-H23; first compound 0.4 µM): 0.786; relative viability (NCI-H23; first compound 1.265 µM): 0.868; relative viability (NCI-H23; first compound 4 µM): 0.441; relative viability (NCI-H460; first compound 0.04 µM): 0.497; relative viability (NCI-H460; first compound 0.1265 µM): 0.491; relative viability (NCI-H460; first compound 0.4 µM): 0.587; relative viability (NCI-H460; first compound 1.265 µM): 0.51; relative viability (NCI-H460; first compound 4 µM): 0.214; relative viability (NCI-H650; first compound 0.04 µM): 0.429; relative viability (NCI-H650; first compound 0.1265 µM): 0.492; relative viability (NCI-H650; first compound 0.4 µM): 0.417; relative viability (NCI-H650; first compound 1.265 µM): 0.424; relative viability (NCI-H650; first compound 4 µM): 0.335; relative viability (NCI-H727; first compound 0.04 µM): 0.554; relative viability (NCI-H727; first compound 0.1265 µM): 0.484; relative viability (NCI-H727; first compound 0.4 µM): 0.394; relative viability (NCI-H727; first compound 1.265 µM): 0.416; relative viability (NCI-H727; first compound 4 µM): 0.352; relative viability (NCI-H838; first compound 0.04 µM): 0.505; relative viability (NCI-H838; first compound 0.1265 µM): 0.558; relative viability (NCI-H838; first compound 0.4 µM): 0.411; relative viability (NCI-H838; first compound 1.265 µM): 0.368; relative viability (NCI-H838; first compound 4 µM): 0.313; relative viability (PC-14; first compound 0.04 µM): 0.65; relative viability (PC-14; first compound 0.1265 µM): 0.522; relative viability (PC-14; first compound 0.4 µM): 0.484; relative viability (PC-14; first compound 1.265 µM): 0.212; relative viability (PC-14; first compound 4 µM): 0.103; relative viability (PC-3 [JPC-3]; first compound 0.04 µM): 0.48; relative viability (PC-3 [JPC-3]; first compound 0.1265 µM): 0.457; relative viability (PC-3 [JPC-3]; first compound 0.4 µM): 0.488; relative viability (PC-3 [JPC-3]; first compound 1.265 µM): 0.461; relative viability (PC-3 [JPC-3]; first compound 4 µM): 0.39; relative viability (RERF-LC-KJ; first compound 0.04 µM): 0.421; relative viability (RERF-LC-KJ; first compound 0.1265 µM): 0.4; relative viability (RERF-LC-KJ; first compound 0.4 µM): 0.407; relative viability (RERF-LC-KJ; first compound 1.265 µM): 0.371; relative viability (RERF-LC-KJ; first compound 4 µM): 0.241; relative viability (SW 1573; first compound 0.04 µM): 0.335; relative viability (SW 1573; first compound 0.1265 µM): 0.368; relative viability (SW 1573; first compound 0.4 µM): 0.324; relative viability (SW 1573; first compound 1.265 µM): 0.229; relative viability (SW 1573; first compound 4 µM): 0.344; relative viability (SW 900; first compound 0.04 µM): 0.592; relative viability (SW 900; first compound 0.1265 µM): 0.545; relative viability (SW 900; first compound 0.4 µM): 0.622; relative viability (SW 900; first compound 1.265 µM): 0.671; relative viability (SW 900; first compound 4 µM): 0.408

— the supplement of paper PMC10307832
